Experimental data: patent US6362394B1, “Juvenile hormone or one of its agonists as a chemical ligand to control gene expression in plants by receptor mediated transactivation” (Syngenta Participations AG, priority 1995, dated 2002)

Tests used:
RXRα = molecular target: T1, RXRα (Homo sapiens, UniProt P19793); conditions: insect and mammalian cells; cited from earlier work
T1 construct: host or cells: insect and mammalian cells (as reported by Harmon et al.)
T1 sequence (P19793 1-462): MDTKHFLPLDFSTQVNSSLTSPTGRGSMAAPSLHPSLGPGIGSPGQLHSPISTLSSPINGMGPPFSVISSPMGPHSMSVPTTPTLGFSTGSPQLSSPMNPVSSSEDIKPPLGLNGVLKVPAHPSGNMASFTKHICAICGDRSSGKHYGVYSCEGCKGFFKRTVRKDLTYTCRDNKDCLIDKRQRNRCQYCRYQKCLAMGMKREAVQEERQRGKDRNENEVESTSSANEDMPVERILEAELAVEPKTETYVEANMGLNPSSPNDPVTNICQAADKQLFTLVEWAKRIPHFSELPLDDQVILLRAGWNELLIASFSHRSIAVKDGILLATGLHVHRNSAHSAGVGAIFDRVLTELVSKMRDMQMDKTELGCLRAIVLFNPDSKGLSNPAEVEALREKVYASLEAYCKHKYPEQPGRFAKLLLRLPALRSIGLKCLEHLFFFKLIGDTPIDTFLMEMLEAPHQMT

[1] = molecular target: T2, receptor polypeptides GAL4-EcR^330-825-C1 and USP-VP16 (Drosophila melanogaster, UniProt P20153); assay: Reversal by juvenile hormone agonists of GAL4-EcR-C1 + USP-VP16 activation of a luciferase target cassette in transformed maize cells; type: cell-based; conditions: 10 μM ligand, approximately 48 hours
T2 construct: expressed in transfected cells; host or cells: maize suspension cells, microprojectile bombardment
Description: (§1) Control of target polypeptide expression by various receptor polypeptides, including the chimeric receptor polypeptides of the present invention, can be shown by simultaneously transforming plant cells with the necessary gene constructions using high velocity microprojectile bombardment, followed by biochemical assay for the presence of the target polypeptide. The necessary gene constructions comprise a USP receptor expression cassette which encodes a USP receptor polypeptide (FIG. 1). Optionally, the USP receptor expression cassette may be transformed along with a secondary receptor expression cassette which encodes a receptor polypeptide distinct from USP (FIGS. 2 and 3). In addition, a target expression cassette which encodes a target polypeptide is also necessary.
(§2) The expression cassettes were simultaneously delivered to maize suspension cells cultured in liquid N6 medium (Chu et al. Scientia Sinica XVIII:659-668, 1975) by high velocity microprojectile bombardment using standard techniques of DNA precipation onto microprojectiles and high velocity bombardment driven by compressed helium (PDS1000/He, BioRad, Hercules, Calif.). Transfected cells were incubated in liquid suspension in the presence of the appropriate chemical ligand for approximately 48 hours in N6 media. After incubation, the transformed cells were harvested then homogenized at 0° C. Debris in the extracts was removed by centrifugation at 10,000 g at 4° C. for 5 minutes.
(§3) Target polypeptide expression was detected by assaying the extract for the presence of the product encoded by the target expression cassette. One commonly used coding sequence for the target polypeptide when testing control of expression by the receptor polypeptides in the presence of a chemical ligand is firefly luciferase. The activity of firefly luciferase is determined by quantitating the chemiluminescence produced by luciferase catalyzed phosphorylation of luciferin using ATP as substrate (Promega Luciferase Kit, cat. no. E1500), using an Analytical Luminescence Model 2001 luminometer. […]

[2] = molecular target: T3, receptor polypeptide VP16-USP (Drosophila melanogaster, UniProt P20153); assay: Chemical induction of luciferase in isolated leaves of transgenic Arabidopsis expressing VP16-USP with a DR-Luciferase reporter; type: cell-based; set-up: expressed in transfected cells; host or cells: transgenic Arabidopsis thaliana (Columbia), isolated leaves; Agrobacterium T-DNA construct; conditions: approximately 24 hours; for Fold increase in luciferase activity: 10 μM; for Luciferase Activity: 35S/VP16-USP, 10 μM ligand in 0.1% ethanol, light units per 10 seconds per 100 μg extract protein, control 638
Description: Arabidopsis thaliana (Columbia) was transformed with an Agrobacterium vector harboring a CaMV 35S promoter and a DR-Luciferase reporter (as described in Example 13 above) by the following vacuum-infiltration procedure. Electrocompetent GV3101 Agrobacterium cells were prepared by incubating GV3101 Agrobacterium in 2×YT media at 28° C. with aeration for 24-30 hours to an OD600 of 0.5-0.7 units. Cells were chilled on ice for 10-30 minutes, and centrifuged at 5,000 RPM for 5 minutes at 4° C. The supernatant was discarded, and the cell pellet resuspended in 1 volume of ice-cold 10% glycerol. Cells were again centrifuged at 5,000 RPM for 5 minutes at 4° C. The supernatant was discarded, and the cell pellet resuspended in 0.05 volumes of ice-cold 10% glycerol. Cells were again centrifuged at 5,000 RPM for 5 minutes at 4° C. The supernatant was discarded, and the cell pellet resuspended in 0.02 volume of ice-cold 10% glycerol. Cells were again centrifuged at 5,000 RPM for 5 minutes at 4° C. The supernatant was discarded, and the cell pellet resuspended 0.02 volume of ice-cold 10% glycerol. Cells were again centrifuged at 5,000 RPM for 5 minutes at 4° C. The supernatant was discarded, and the cell pellet resuspended in 0.01 volume of ice-cold 10% glycerol. Cells were aliquoted in […] amounts per 1.5 ml microfuge tubes, quick-frozen in liquid N2, and stored at −80° C. Electrocompetent cells were used before 6 weeks storage at −80° C. Frozen electrocompetent cells were thawed on ice and 40 ml transfered to a pre-chilled 1.5 ml microfuge tube. 1 ml of the appropriate Agrobacterium plasmid DNA (2-10 ng) was added to the thawed cells and mixed on ice. The cell/plasmid mixture was transfered to a prechilled 0.2 cm Bio-Rad electroporation cuvette, and electroporated at 2.0 KVolts, 600 Ohms, 25 μFarad, with a 6 msec time constant. 1 †ml of 2×YT media was added to the electroporation cuvette, the cell/plasmid solution was mixed with a pipet tip, and the contents transfered to a fresh 1.5 ml microfuge tube. Cells were then incubated at […] for 1 hour on a shaker at 200 RPM. The cells were centrifuged down for 2 minutes at a setting of 6 in an Eppendorph adjustable-speed microfuge, the supernatant decanted, and the cell pellet resuspended in the remaining liquid. Resuspended cells were spread on an LB media plate with the appropriate antibiotic. Plates were incubated at 28-30° C. for […]. A 50 ml LB culture was innoculated with a single transformed colony in a 250 ml flask with Rifampicin at 100 μg/ml and Gentomycin at 25 μg/ml and Kanamycin at 100 μg/ml. The culture was incubated for 24-36 hours at 28° C. at 250 RPM and 10 ml of the culture was used to innoculate 500 ml LB+antibiotics in a 2-liter flask. This culture was incubated overnight at 28° C. with shaking at 250 RPM. […]

[3] = molecular target: T3, receptor polypeptide VP16-USP; assay: VP16-USP activation of a direct repeat luciferase target cassette in transformed maize cells; type: cell-based; set-up: expressed in transfected cells; conditions: 35S/VP16-USP, target (DR3)3-Bz1TATA/Luc, 10 μM ligand, 48 hours, no ligand 29,967
Description: as §1, with “necessary. […]” for “necessary.”
Target polypeptide expression was detected by assaying the extract for the presence of the product encoded by the target expression cassette. […] The activity of firefly luciferase is determined by quantitating the chemiluminescence produced by luciferase catalyzed phosphorylation of luciferin using ATP as substrate (Promega Luciferase Kit, cat. no. E1500), using an Analytical Luminescence Model 2001 luminometer. […]

[4] = molecular target: T4, receptor polypeptides GAL4-EcR^330-825-C1 and USP-VP16 (Drosophila melanogaster, UniProt P20153+P34021); assay: Tebufenozide-induced activation by GAL4-EcR-C1 + USP-VP16 of a luciferase target cassette in maize cells, and its block by methoprene; type: cell-based; conditions: approximately 48 hours
T4 construct: expressed in transfected cells; host or cells: maize suspension cells, microprojectile bombardment
Description: as §1, §2, §3

USP = molecular target: T5, USP (Drosophila melanogaster, UniProt P20153); conditions: Drosophila cell-culture assays; conditions in which RXR is responsive; cited from earlier work
T5 construct: host or cells: Drosophila cell culture (as reported by Oro et al. and Harmon et al.)
T5 sequence (P20153 1-508): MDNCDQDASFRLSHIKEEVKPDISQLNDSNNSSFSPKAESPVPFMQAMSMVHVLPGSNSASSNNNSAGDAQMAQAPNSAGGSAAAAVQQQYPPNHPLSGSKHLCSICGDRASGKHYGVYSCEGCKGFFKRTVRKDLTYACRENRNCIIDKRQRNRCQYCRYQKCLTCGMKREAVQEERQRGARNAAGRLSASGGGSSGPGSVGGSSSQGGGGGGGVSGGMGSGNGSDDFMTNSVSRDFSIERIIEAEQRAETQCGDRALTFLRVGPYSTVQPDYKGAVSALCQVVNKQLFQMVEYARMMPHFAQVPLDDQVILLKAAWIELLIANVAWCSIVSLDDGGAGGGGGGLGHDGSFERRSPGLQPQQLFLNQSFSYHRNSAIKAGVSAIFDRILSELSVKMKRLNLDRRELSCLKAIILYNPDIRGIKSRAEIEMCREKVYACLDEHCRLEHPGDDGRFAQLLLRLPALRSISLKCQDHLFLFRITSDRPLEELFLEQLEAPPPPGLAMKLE

[5] = molecular target: USP-VP16 chimeric receptor polypeptide (Drosophila; herpes simplex virus) (UniProt P20153); assay: cell-based or functional assay
[6] = Experiment #1, 35S/GAL4-EcR^330-825-C1 + 35S/USP-VP16, target (GAL4b.s.)10-Bz1TATA/Luc, no ligand 277,862

T2 sequence (P06492 411-490, one chain of several): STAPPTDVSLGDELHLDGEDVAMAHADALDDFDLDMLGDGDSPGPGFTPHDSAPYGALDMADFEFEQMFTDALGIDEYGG
T3 sequence (P06492 413-490, one chain of several): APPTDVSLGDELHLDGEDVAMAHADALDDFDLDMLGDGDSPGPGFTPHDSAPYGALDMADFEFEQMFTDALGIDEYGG

## COC(C)(C)CCC[C@H](C)C/C=C/C(C)=C/C(=O)OC(C)C (racemic) [Methoprene]
RXRα
  RXRα-mediated transcriptional activation of a recombinant reporter gene: transcriptionally activate
[1]; [6]
  Luciferase Activity: 14,786 light units
[1]; Experiment #2, 35S/GAL4-EcR^330-825-C1 + 35S/USP-VP16, target (GAL4b.s.)10-Bz1TATA/Luc, no ligand 178,092
  Luciferase Activity: 5,730 light units
[2]
  Fold increase in luciferase activity: 25 fold
  Luciferase Activity: 15,790 light units
[3]
  Luciferase Activity: 485,458 light units
[4]; 10 μM methoprene with 10 μM tebufenozide
  Effect on tebufenozide-induced activation of luciferase gene expression: completely blocked

## CCOC(=O)NCCOc1ccc(Oc2ccccc2)cc1 [Fenoxycarb, ethyl [2-(4-phenoxyphenoxy)ethyl]carbamate]
[1]; [6]
  Luciferase Activity: 77,418 light units
[2]
  Fold increase in luciferase activity: 6.2 fold
  Luciferase Activity: 3,991 light units

## CCc1ccc(C(=O)NN(C(=O)c2cc(C)cc(C)c2)C(C)(C)C)cc1 [Tebufenozide]
[4]; 10 μM
  Tebufenozide-induced activation of luciferase gene expression, fold increase when used alone: approximately 6 fold
[4]; 35S/GAL4-EcR^330-825-C1 + 35S/USP-VP16, target (GAL4b.s.)10-Bz1TATA/Luc, 10 μM each ligand, no ligand 178,092
  Luciferase Activity: 908,912 light units

## COC(C)(C)CCCC(C)C/C=C/C(C)=C/C(=O)O (centres unmarked) [methoprene acid]
RXRα
  RXRα-mediated transcriptional activation of a recombinant reporter gene: transcriptionally activate
USP
  Activation / response of USP: does not respond

## GAL4-EcR^330-825-C1 chimeric receptor polypeptide (from UniProt P04386 1-147; P34021 330-825; P10290 219-273)
[5]
  Luciferase Activity (light units) of the (GAL4b.s.)10-Bz1TATA/Luc reporter in maize cells, Experiment #1, no chemical ligand: 278000 light units
  Luciferase Activity (light units) of the (GAL4b.s.)10-Bz1TATA/Luc reporter in maize cells, Experiment #1, with 10 uM Fenoxycarb: 77400 light units
  Luciferase Activity (light units) of the (GAL4b.s.)10-Bz1TATA/Luc reporter in maize cells, Experiment #1, with 10 uM Methoprene: 14800 light units
  Luciferase Activity (light units) of the (GAL4b.s.)10-Bz1TATA/Luc reporter in maize cells, Experiment #2, no chemical ligand: 178000 light units
  Luciferase Activity (light units) of the (GAL4b.s.)10-Bz1TATA/Luc reporter in maize cells, Experiment #2, with 10 uM Methoprene: 5730 light units
  Luciferase Activity (light units) of the (GAL4b.s.)10-Bz1TATA/Luc reporter in maize cells, with 10 uM Tebufenozide: 909000 light units
  Luciferase Activity (light units) of the (GAL4b.s.)10-Bz1TATA/Luc reporter in maize cells, with 10 uM Tebufenozide + 10 uM Methoprene: 160000 light units
  level of tebufenozide-induced activation of luciferase gene expression (fold increase, tebufenozide alone): 6 fold

## Juvenile hormone
RXRα
  RXRα-mediated transcriptional activation of a recombinant reporter gene: does not induce
